Like-named read-outs stand apart in the source and are kept apart here.
Experiments:
[1] = Dissolution study, USP dissolution apparatus II; assay type: physicochemical; conditions: 500 ml 0.2% polysorbate 20 in 0.05 M phosphate buffer pH 6.5, paddle 75 rpm; 8 mg c.c. added except tablets as footnoted
Protocol: The medium used for dissolution studies was 500 ml of 0.2% polysorbate 20 in 0.05 M phosphate buffer pH 6.5 with a paddle speed of 75 rpm (USP dissolution apparatus II). In all dissolution tests, 8 mg of candesartan cilexetil was added to the medium (except where other is stated). After extraction with 60% (v/v) acetonitrile in water (filter pore size 0.45 μm), the amount of candesartan cilexetil was determined by liquid chromatography and UV-detection at 254 nm.

[2] = Bioavailability in rats after per-oral administration; conditions: rat, in vivo, read-out: Relative bioavailability
[3] = cited from earlier work

Drug dissolved after 5 minutes [1]: 24 | Drug dissolved after 10 minutes [1]: 43 | Drug dissolved after 15 minutes [1]: 54 | Drug dissolved after 20 minutes [1]: 61 | bioavailability ([2]; given as a suspension): 19% | bioavailability ([2]; given in solution): 50%
Compound: CCOc1nc2cccc(C(=O)OC(C)OC(=O)OC3CCCCC3)c2n1Cc1ccc(-c2ccccc2-c2nnn[nH]2)cc1 (stereo not shown) [c.c., candesartan cilexetil]
Solubility in water [3]: < 0.05 µg/mL

From patent US20080058399A1, “Pharmaceutical Compositions” (ASTRAZENECA AB, priority 2006, published 2008)
